Literature values in patent EP2537519A1, “NEUROPATHIC PAIN ALLEVIATING AGENT” (HBC Science Laboratory Co., Ltd, priority 2010, dated 2011).

Biological target: Cav3.2 (Homo sapiens, UniProt O95180)
Conditions: reported by Nelson et al., J Neurosci 2007

Sequence of Cav3.2 (O95180 whole entry): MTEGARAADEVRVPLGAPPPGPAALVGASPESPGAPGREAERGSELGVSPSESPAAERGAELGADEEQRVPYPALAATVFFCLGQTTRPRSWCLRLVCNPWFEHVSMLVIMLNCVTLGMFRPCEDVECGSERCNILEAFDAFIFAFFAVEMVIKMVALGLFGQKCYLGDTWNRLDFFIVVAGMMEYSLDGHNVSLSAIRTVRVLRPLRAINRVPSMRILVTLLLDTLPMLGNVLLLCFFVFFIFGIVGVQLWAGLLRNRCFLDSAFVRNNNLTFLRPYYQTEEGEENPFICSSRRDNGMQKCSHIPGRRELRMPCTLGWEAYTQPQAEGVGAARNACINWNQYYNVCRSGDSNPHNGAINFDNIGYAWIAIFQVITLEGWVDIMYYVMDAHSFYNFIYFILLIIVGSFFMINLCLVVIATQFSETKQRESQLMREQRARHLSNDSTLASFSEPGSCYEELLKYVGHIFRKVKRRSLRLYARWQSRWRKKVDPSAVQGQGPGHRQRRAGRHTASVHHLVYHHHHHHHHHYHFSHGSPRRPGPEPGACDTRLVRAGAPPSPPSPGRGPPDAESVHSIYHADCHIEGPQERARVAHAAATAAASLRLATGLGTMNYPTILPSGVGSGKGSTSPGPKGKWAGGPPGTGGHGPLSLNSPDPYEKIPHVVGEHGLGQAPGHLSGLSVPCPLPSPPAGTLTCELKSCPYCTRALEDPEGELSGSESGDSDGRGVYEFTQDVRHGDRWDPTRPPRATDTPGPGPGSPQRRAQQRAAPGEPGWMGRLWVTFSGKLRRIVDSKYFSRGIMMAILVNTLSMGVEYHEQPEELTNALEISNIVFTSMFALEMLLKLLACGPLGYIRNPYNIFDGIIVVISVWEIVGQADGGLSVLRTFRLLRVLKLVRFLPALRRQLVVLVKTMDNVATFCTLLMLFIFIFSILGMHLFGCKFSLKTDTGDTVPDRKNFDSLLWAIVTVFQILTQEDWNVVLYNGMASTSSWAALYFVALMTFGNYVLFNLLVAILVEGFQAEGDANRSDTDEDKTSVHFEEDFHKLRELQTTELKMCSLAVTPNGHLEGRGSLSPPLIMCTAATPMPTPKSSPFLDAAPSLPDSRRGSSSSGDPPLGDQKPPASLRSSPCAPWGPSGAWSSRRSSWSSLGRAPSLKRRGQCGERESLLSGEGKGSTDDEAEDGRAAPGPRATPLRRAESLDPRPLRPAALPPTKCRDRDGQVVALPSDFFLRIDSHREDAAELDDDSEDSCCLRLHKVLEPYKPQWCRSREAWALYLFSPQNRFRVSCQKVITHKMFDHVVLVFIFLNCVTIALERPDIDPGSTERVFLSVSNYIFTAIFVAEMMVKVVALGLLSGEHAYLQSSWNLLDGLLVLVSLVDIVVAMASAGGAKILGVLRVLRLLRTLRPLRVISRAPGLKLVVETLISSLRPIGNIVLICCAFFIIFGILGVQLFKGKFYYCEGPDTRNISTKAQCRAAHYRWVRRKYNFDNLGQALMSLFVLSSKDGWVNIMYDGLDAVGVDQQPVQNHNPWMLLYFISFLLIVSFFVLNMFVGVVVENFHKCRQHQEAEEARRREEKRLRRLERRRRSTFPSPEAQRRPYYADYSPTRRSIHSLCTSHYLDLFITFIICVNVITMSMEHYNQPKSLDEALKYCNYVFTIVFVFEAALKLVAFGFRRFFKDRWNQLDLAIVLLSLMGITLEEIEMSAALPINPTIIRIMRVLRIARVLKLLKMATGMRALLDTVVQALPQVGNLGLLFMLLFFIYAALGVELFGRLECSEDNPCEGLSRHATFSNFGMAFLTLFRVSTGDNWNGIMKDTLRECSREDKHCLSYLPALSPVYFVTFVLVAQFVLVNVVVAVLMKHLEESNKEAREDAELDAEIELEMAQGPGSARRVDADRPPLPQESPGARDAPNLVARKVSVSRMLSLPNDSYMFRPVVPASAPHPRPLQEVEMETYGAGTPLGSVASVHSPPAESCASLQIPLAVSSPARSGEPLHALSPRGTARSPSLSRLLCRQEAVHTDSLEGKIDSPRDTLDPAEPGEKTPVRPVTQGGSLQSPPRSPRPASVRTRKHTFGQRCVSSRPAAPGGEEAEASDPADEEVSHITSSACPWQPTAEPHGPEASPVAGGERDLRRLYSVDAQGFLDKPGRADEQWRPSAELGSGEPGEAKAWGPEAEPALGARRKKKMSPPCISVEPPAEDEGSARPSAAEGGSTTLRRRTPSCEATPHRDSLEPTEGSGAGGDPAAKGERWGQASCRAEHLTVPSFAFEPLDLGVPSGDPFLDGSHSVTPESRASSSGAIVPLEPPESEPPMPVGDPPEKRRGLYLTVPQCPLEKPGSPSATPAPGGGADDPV

inhibition of Cav3.2 among T-type Ca2+ channels: specifically inhibits
SMILES: O=C1O[C@H]([C@@H](O)CO)C(O)=C1O [ascorbic acid]
